The values that follow come from paper PMC8815882, “Screening the pandemic response box identified benzimidazole carbamates, Olorofim and ravuconazole as promising drug candidates for the treatment of eumycetoma” (PLoS Neglected Tropical Diseases, 2022).

This assay has as its system M. mycetomatis genome strain MM55. Kind of assay: CLSI M38-A2 based in vitro susceptibility screening (XTT or resazurin), growth at fixed concentration. The conditions noted are these: for activity at 25 µM / activity at 100 µM / Percent fungal survival at 100 µM: Madurella mycetomatis; for Percent fungal survival at 100 µM: read-out: Percentage survival at 100um, 100 uM A (second replicate column). The assay is classed as cell-based, Madurella mycetomatis. A general note: Tetrazolium assays rely on reduction of a dye to a coloured formazan, in cell work by metabolically active cells.

Where [1] appears, read: 25 uM, mean, read-out: Percentage survival at 25um, 25 uM mean.
The mark [2] stands for this setting: 25 uM, replicate A, read-out: Percentage survival at 25um, 25 um A.
The mark [3] stands for this setting: 25 uM, replicate B, read-out: Percentage survival at 25um, 25 uM B.
[4] abbreviates: 25 uM, replicate C, read-out: Percentage survival at 25um, 25 uM C.
Setting [5] is: 100 uM, mean, read-out: Percentage survival at 100um, 100 uM mean.
Setting [6] is: 100 uM, replicate (first column), read-out: Percentage survival at 100um, 100 uM A.
The mark [7] stands for this setting: 100 uM, replicate (second column), read-out: Percentage survival at 100um, 100 uM A.
Where [8] appears, read: 100 uM, replicate (third column), read-out: Percentage survival at 100um, 100 uM A.
Setting [9] is: 25 uM, mean of replicates, read-out: Percentage survival at 25um, 25 uM mean.
Where [10] appears, read: 100 uM, mean of replicates, read-out: Percentage survival at 100um, 100 uM mean.
Where [11] appears, read: 100 uM, replicate 1, read-out: Percentage survival at 100um, 100 uM A.
Setting [12] is: 100 uM, replicate 2, read-out: Percentage survival at 100um, 100 uM A.
The mark [13] stands for this setting: 100 uM, replicate 3, read-out: Percentage survival at 100um, 100 uM A.
Where [14] appears, read: 25 uM, mean of three replicates, read-out: Percentage survival at 25um, 25 uM mean.
Setting [15] is: 100 uM, first replicate column, read-out: Percentage survival at 100um, 100 uM A.
The mark [16] stands for this setting: 100 uM, mean of three replicates, read-out: Percentage survival at 100um, 100 uM mean.
[17] abbreviates: 100 uM, second replicate column, read-out: Percentage survival at 100um, 100 uM A.
[18] abbreviates: 100 uM, third replicate column, read-out: Percentage survival at 100um, 100 uM A.
[19] abbreviates: 100 uM, replicate 1, read-out: Percentage survival at 100um, 100 uM A (first replicate column).
The mark [20] stands for this setting: 100 uM, replicate 3, read-out: Percentage survival at 100um, 100 uM A (third replicate column).
[21] abbreviates: 25 uM, mean of replicates, MM55, read-out: Percentage survival at 25um, 25 uM mean.
Setting [22] is: 25 uM, replicate A, MM55, read-out: Percentage survival at 25um, 25 um A.
The mark [23] stands for this setting: 25 uM, replicate B, MM55, read-out: Percentage survival at 25um, 25 uM B.
Where [24] appears, read: 25 uM, replicate C, MM55, read-out: Percentage survival at 25um, 25 uM C.
[25] abbreviates: 100 uM, mean of replicates, MM55, read-out: Percentage survival at 100um, 100 uM mean.
Where [26] appears, read: 100 uM, replicate 1, MM55, read-out: Percentage survival at 100um, 100 uM A.
The mark [27] stands for this setting: 100 uM, replicate 2, MM55, read-out: Percentage survival at 100um, 100 uM A.
[28] abbreviates: 100 uM, replicate 3, MM55, read-out: Percentage survival at 100um, 100 uM A.

Values joined by “and” are separate entries in the source; they are usually repeats but may differ in a detail not shown here. Equal entries are not always repeated. Where two headings read alike, the source gives them in different places.

Consider `CCNC(=O)Nc1cc(-c2ccccc2)c(-c2cncc(C(=O)O)c2)cn1` [MMV1593534], for which the activity at 25 µM runs as follows: under setting [1], 85.6%; under setting [2], 94.2%; under setting [3], 90.1%; under setting [4], 72.5%. Besides, the activity at 100 µM was determined as 53.4% under setting [5], 4.59% under setting [6], 76.9% under setting [7] and 78.8% under setting [8].
As for `NC[C@H]1O[C@H](O[C@H]2[C@H](O)[C@@H](O[C@H]3O[C@H](CO)[C@@H](O)[C@H](N)[C@H]3O)[C@H](N)C[C@@H]2N)[C@H](N)C[C@@H]1O` [MMV002459], the activity at 25 µM by setting is: under setting [9], 86.6%; under setting [2], 96.5%; under setting [3], 69%; under setting [4], 94.3%. The activity at 100 µM is 63.3% under setting [10], 89.3% under setting [11], 40% under setting [12] and 60.6% under setting [13].
On to `O=C(NCc1cccc2ccccc12)c1cccs1` [MMV1579845], for which the activity at 25 µM came to 55.9% under setting [1], 59.6% under setting [2], 48.9% under setting [3] and 59.3% under setting [4]. For the same molecule, the activity at 100 µM was 35% under setting [5], 90% under setting [6], 6.29% under setting [7] and 8.86% under setting [8].
On to `CCc1cc(CCCOc2c(C)cc(-c3noc(C(F)(F)F)n3)cc2C)on1` [MMV1634556], for which the activity at 25 µM runs as follows: under setting [14], 87%; under setting [2], 70.7%; under setting [3], 105%; under setting [4], 85.5%. Besides, the activity at 100 µM reads like this: under setting [15], 76.5%; under setting [16], 73%; under setting [17], 74.6%; under setting [18], 68%.
In the case of `CC1(C)C[C@H]1C(=O)N/C(=C\CCCCSC[C@@H](N)C(=O)O)C(=O)O` [MMV1613559], the “Percentage survival at 100um, 100 uM A” value was 93.1771% and 127.204% and 75.2981%. The activity at 25 µM (read-out: Percentage survival at 25um, 25 uM B) worked out at 95.4%. For the same molecule, the activity at 25 µM (read-out: Percentage survival at 25um, 25 uM C) was 77.8%. The activity at 25 µM (read-out: Percentage survival at 25um, 25 uM mean) was 92.2%. For the same molecule, under “read-out: Percentage survival at 25um, 25 um A”, the activity at 25 µM worked out at 103%. Moreover, the activity at 100 µM (read-out: Percentage survival at 100um, 100 uM mean) worked out at 98.6%.
With `Nc1nc(C(F)(F)F)cc2c1[nH]c(=O)n2Cc1ccccc1` [MMV1634389], the activity at 25 µM is 83.5% under setting [9], 74.5% under setting [2], 96.8% under setting [3] and 79.4% under setting [4]. Further, the activity at 100 µM by setting is: under setting [10], 61.6%; under setting [19], 36.1%; under setting [20], 81.6%. In addition, the Percent fungal survival at 100 µM (100 uM, replicate 2) is 67.1%.
As for `N=C(N)c1ccc(COc2ccc(Cl)cc2)cc1` [MMV1579844], the activity at 25 µM (25 uM, mean of three, M. mycetomatis MM55, read-out: Percentage survival at 25um, 25 uM mean) came out at 73%; the activity at 25 µM (25 uM, replicate A, M. mycetomatis MM55, read-out: Percentage survival at 25um, 25 um A) was determined as 69.6%; the activity at 25 µM (25 uM, replicate B, M. mycetomatis MM55, read-out: Percentage survival at 25um, 25 uM B) came out at 72.8%; the activity at 25 µM (25 uM, replicate C, M. mycetomatis MM55, read-out: Percentage survival at 25um, 25 uM C) was found to be 76.5%. In addition, the activity at 100 µM by setting is: (100 uM, mean of three, M. mycetomatis MM55, read-out: Percentage survival at 100um, 100 uM mean) 73.6%; (100 uM, replicate 1, M. mycetomatis MM55, read-out: Percentage survival at 100um, 100 uM A (first replicate column)) 55.9%; (100 uM, replicate 3, M. mycetomatis MM55, read-out: Percentage survival at 100um, 100 uM A (third replicate column)) 67.2%. Moreover, the Percent fungal survival at 100 µM (100 uM, replicate 2, M. mycetomatis MM55) was 97.7%.
On to `CC(Cc1ccccc1)C(=O)Nc1ccc(Cl)cc1C(=O)O` (stereo not drawn) [MMV1579781], for which the activity at 25 µM is, setting by setting: under setting [14], 92.5%; under setting [2], 104%; under setting [3], 93.1%; under setting [4], 80.7%. Moreover, the activity at 100 µM reads like this: under setting [16], 85.9%; under setting [19], 87.4%; under setting [20], 88.1%. Moreover, the Percent fungal survival at 100 µM (100 uM, replicate 2) was 82.1%.
In the case of `COc1ccc(SCC(=O)N2c3ccccc3Sc3ccccc32)cc1` [MMV1578573], the activity at 25 µM turned out to be 55.5% under setting [9], 59.3% under setting [2], 58.5% under setting [3] and 48.8% under setting [4]. The activity at 100 µM was 68.5% under setting [10], 43.6% under setting [11], 62.3% under setting [12] and 99.7% under setting [13].
As to `O=C(O)COc1cccc2c1CC[C@](O)(COC(=O)N(c1ccccc1)c1ccccc1)C2` [MMV1782352], the activity at 25 µM runs as follows: under setting [21], 89.4%; under setting [22], 92.5%; under setting [23], 96.3%; under setting [24], 79.5%. In addition, the activity at 100 µM reads like this: under setting [25], 88.8%; under setting [26], 91.1%; under setting [27], 97.6%; under setting [28], 77.7%.
For `O=C(NC(=O)N1CCCc2ccccc21)c1ccc(Cl)cc1Cl` [MMV1782218], the activity at 25 µM reads like this: under setting [1], 77.7%; under setting [2], 84.5%; under setting [3], 82%; under setting [4], 66.6%. Besides, the activity at 100 µM by setting is: under setting [5], 59.4%; under setting [6], 65.3%; under setting [7], 55.7%; under setting [8], 57.2%.
Regarding `O=C(c1ccccc1)N1CCN(c2ccccc2NC(=O)C(Cl)(Cl)Cl)CC1` [MMV001014], the activity at 25 µM runs as follows: under setting [9], 76%; under setting [2], 69%; under setting [3], 93.3%; under setting [4], 65.7%. In addition, the activity at 100 µM is, setting by setting: under setting [10], 78.9%; under setting [11], 98.3%; under setting [12], 71.3%; under setting [13], 67.2%.
Regarding `O=[N+]([O-])c1cn2c(n1)OC[C@@H](OCc1ccc(OC(F)(F)F)cc1)C2` [MMV688755], the activity at 25 µM runs as follows: under setting [9], 85.3%; under setting [2], 91.8%; under setting [3], 92.4%; under setting [4], 71.7%. Further, the activity at 100 µM is, setting by setting: under setting [10], 85.9%; under setting [11], 75%; under setting [12], 105%; under setting [13], 77.3%.
Take `O=C(NO)C1(CS(=O)(=O)c2ccc(Oc3ccc(Cl)cc3)cc2)CCOCC1` [MMV690706]: the activity at 25 µM came out at 82% under setting [21], 85.7% under setting [22], 90.9% under setting [23] and 69.4% under setting [24]. Besides, the activity at 100 µM by setting is: under setting [25], 68.5%; under setting [26], 72.4%; under setting [27], 62.8%; under setting [28], 70.2%.
Take `C[C@H](Cn1cnc2c(N)ncnc21)OCP(=O)(O)O` [MMV1580478]: the activity at 25 µM is 99.2% under setting [14], 98.1% under setting [2], 110% under setting [3] and 89.5% under setting [4]. Also, the activity at 100 µM is 94.5% under setting [15], 89% under setting [16], 87.6% under setting [17] and 84.8% under setting [18].
On to `CC[C@@]1(O)C(=O)OCc2c1cc1n(c2=O)Cc2cc3c(CN(C)C)c(O)ccc3nc2-1` [MMV1633678], for which the activity at 25 µM was 101% under setting [14], 86.9% under setting [2], 110% under setting [3] and 108% under setting [4]. In addition, the activity at 100 µM by setting is: under setting [15], 94.8%; under setting [16], 89.5%; under setting [17], 86.7%; under setting [18], 86.9%.
